According to patent US10611771B2, “Pyrazolo [3,4-d] pyrimidine derivative” (WEST CHINA HOSPITAL, SICHUAN UNIVERSITY, priority 2016, dated 2020):
“And” between values parts separate entries of the source, which are not always exact repeats. Equal values may be shown once.

Key:
A549 cells = experiment: MTT detection method, inhibitory effect against A549 cells; format: cell-based
Source text: (§1) MTT detection method was used, and MTT is a yellow compound and a dye accepting hydrogen ions, and can be used as the respiratory chain in mitochondria of viable cells. Under the action of succinate dehydrogenase and cytochrome C, the tetrazolium ring broke to form blue formanzan crystal, and the formation amount of formanzan crystal was only directly proportional to the viable counts. The formanzan crystal formed by reduction can dissolve in dimethyl sulfoxide (DMSO), and the optical density (OD) value can be determined at 490 nm using ELISA, to reflect the viable counts.
(§2) • Lung cancer cell lines: A549 and H1299. • Experimental materials: lung cancer cell lines, instruments and tools for cell culture, MTT, the compound mother liquid (10 mmol/L), and the positive control drug Src inhibitor pp1. 1. Specific Method • (3-1) Cell lines A549 and H1299 were recovered, and when the cells were in good conditions, namely cells grew to about 80% after one passage (i.e. the logarithmic growth phase), the cells were planked (96-well plate). • (3-2) Firstly, cells were collected, and the concentration of cell suspension was adjusted with counting chamber. Cells were seeded in 96-well plate at 1000˜10000 cells/well, and the detailed cell numbers in each well were dependent on the growth rate of different cells and the action time of drugs. A549 cells were seeded at 5000 cells, while H1299 cells were also seeded at 5000 cells, 200 μl for each well (100 μl cell suspension+100 μl drug dilution at different concentration gradient). The edge wells (36) were added 200 μl culture media (for prevention of edge effect). • (3-3) After planking and adding drugs, the plate was treated at 24 h, 48 h, and 72 h, and then for coloration, each well was added 200 μl culture media containing 20 μl MTT solution (5 mg/mL). The plate was continually cultured for 1˜4 hours, the incubation was stopped, and the culture supernatant fluid in each well was carefully absorbed. For suspension cells, the culture supernatant fluid in each well need be centrifuged before drawing. 150 μl DMSO was added to each well, and the plate was shaken on a shaking table for 15˜20 min, to allow the crystals to be completely dissolved. • (3-4) Colorimetry: The colorimetry was performed by ELISA, and the optical absorption value of each well was tested at a wavelength of 490 nm or 570 nm, and the result was recorded. • (3-5) Calculation Inhibition ratio=(the control−the drug)/the control×100% • IC50 (50% inhibitory concentration) can be calculated by spass software based on the inhibitory ratio at different concentration. II. Experimental Results • A549 cells were treated at 4 h, 24 h, 48 h, 72 h, and the drug dose was divided into the light concentration group (10 μm, 25 μm, 40 μm) and the high concentration group (50 μm, 80 μm, 100 μm), that were seeded at 6000 cells/well and 5000 cells/well, respectively, to carry out the experiment.

H1299 cells = experiment: MTT detection method, inhibitory effect against H1299 cells; format: cell-based
Source text: as §1, §2
H1299 cells were seeded at 5000 cells/well, and after treatment for 4 h, 24 h, 48 h, and 72 h, the results were shown in Tables 5-9 and FIGS. 5-8: […]

SMILES: CCCCn1nc(-c2ccc(OCCOCCOCCOCCOS(=O)(=O)c3ccc(C)cc3)cc2)c2c(N)ncnc21 [Compound 2, 2-(2-(2-(2-(4-(4-amino-1-n-butyl-1H-pyrazolo[3,4-d]pyrimidin-3-)phenoxy)ethoxy)ethoxy)ethoxy)ethyl 4-methylbenzenesulfonic Acid]
- The inhibitory ratio (%) for three parallel assays (A549 cells; 4 h, 10 μm): 25.00% and 30.31% and 29.06%
- The mean inhibitory ratio (%) (A549 cells; 4 h, 10 μm): 28.13%
- The inhibitory ratio (%) for three parallel assays (A549 cells; 4 h, 25 μm): 14.38% and 17.19% and 13.44%
- The mean inhibitory ratio (%) (A549 cells; 4 h, 25 μm): 15.00%
- The mean inhibitory ratio (%) (A549 cells; 4 h, 40 μm): 14.17%
- The inhibitory ratio (%) for three parallel assays (A549 cells; 4 h, 50 μm): 34.57%
- The mean inhibitory ratio (%) (A549 cells; 4 h, 50 μm): 34.57%
- The inhibitory ratio (%) for three parallel assays (A549 cells; 4 h, 80 μm): 34.86% and 36.86% and 35.14%
- The mean inhibitory ratio (%) (A549 cells; 4 h, 80 μm): 35.62%
- The inhibitory ratio (%) for three parallel assays (A549 cells; 4 h, 100 μm): 39.43% and 38.29% and 35.71%
- The mean inhibitory ratio (%) (A549 cells; 4 h, 100 μm): 37.81%
- The inhibitory ratio (%) for three parallel assays (A549 cells; 24 h, 10 μm): 16.09% and 20.22% and 12.83%
- The mean inhibitory ratio (%) (A549 cells; 24 h, 10 μm): 16.38%
- The inhibitory ratio (%) for three parallel assays (A549 cells; 24 h, 25 μm): 20.43% and 18.48% and 18.70%
- The mean inhibitory ratio (%) (A549 cells; 24 h, 25 μm): 19.20%
- The inhibitory ratio (%) for three parallel assays (A549 cells; 24 h, 40 μm): 18.48% and 24.35% and 23.91%
- The mean inhibitory ratio (%) (A549 cells; 24 h, 40 μm): 22.25%
- The inhibitory ratio (%) for three parallel assays (A549 cells; 24 h, 50 μm): 71.46% and 71.25% and 71.04%
- The mean inhibitory ratio (%) (A549 cells; 24 h, 50 μm): 71.25%
- The inhibitory ratio (%) for three parallel assays (A549 cells; 24 h, 80 μm): 75.63% and 75.83% and 74.79%
- The mean inhibitory ratio (%) (A549 cells; 24 h, 80 μm): 75.42%
- The inhibitory ratio (%) for three parallel assays (A549 cells; 24 h, 100 μm): 73.75% and 75.83% and 74.58%
- The mean inhibitory ratio (%) (A549 cells; 24 h, 100 μm): 74.72%
- The inhibitory ratio (%) for three parallel assays (A549 cells; 48 h, 10 μm): 24.84% and 31.41% and 29.22%
- The mean inhibitory ratio (%) (A549 cells; 48 h, 10 μm): 28.49%
- The inhibitory ratio (%) for three parallel assays (A549 cells; 48 h, 25 μm): 32.66% and 36.72% and 31.56%
- The mean inhibitory ratio (%) (A549 cells; 48 h, 25 μm): 33.65%
- The inhibitory ratio (%) for three parallel assays (A549 cells; 48 h, 40 μm): 47.97% and 47.66% and 49.06%
- The mean inhibitory ratio (%) (A549 cells; 48 h, 40 μm): 48.23%
- The inhibitory ratio (%) for three parallel assays (A549 cells; 48 h, 50 μm): 82.83% and 81.50% and 80.33%
- The mean inhibitory ratio (%) (A549 cells; 48 h, 50 μm): 81.56%
- The inhibitory ratio (%) for three parallel assays (A549 cells; 48 h, 80 μm): 82.67% and 83.00% and 82.83%
- The mean inhibitory ratio (%) (A549 cells; 48 h, 80 μm): 82.83%
- The inhibitory ratio (%) for three parallel assays (A549 cells; 48 h, 100 μm): 83.17% and 83.00% and 82.83%
- The mean inhibitory ratio (%) (A549 cells; 48 h, 100 μm): 83.00%
- The inhibitory ratio (%) for three parallel assays (A549 cells; 72 h, 10 μm): 30.00% and 29.46%
- The mean inhibitory ratio (%) (A549 cells; 72 h, 10 μm): 29.64%
- The inhibitory ratio (%) for three parallel assays (A549 cells; 72 h, 25 μm): 48.74% and 47.21% and 50.00%
- The mean inhibitory ratio (%) (A549 cells; 72 h, 25 μm): 48.65%
- The inhibitory ratio (%) for three parallel assays (A549 cells; 72 h, 40 μm): 68.92% and 70.36% and 70.63%
- The mean inhibitory ratio (%) (A549 cells; 72 h, 40 μm): 69.97%
- The inhibitory ratio (%) for three parallel assays (A549 cells; 72 h, 50 μm): 88.11% and 87.97% and 88.38%
- The mean inhibitory ratio (%) (A549 cells; 72 h, 50 μm): 88.15%
- The inhibitory ratio (%) for three parallel assays (A549 cells; 72 h, 80 μm): 88.51% and 88.38%
- The mean inhibitory ratio (%) (A549 cells; 72 h, 80 μm): 88.47%
- The inhibitory ratio (%) for three parallel assays (A549 cells; 72 h, 100 μm): 88.38% and 88.65% and 88.51%
- The mean inhibitory ratio (%) (A549 cells; 72 h, 100 μm): 88.51%
- The inhibitory ratio (%) for three parallel assays (H1299 cells; 4 h, 10 μm): 9% and 12% and 2%
- The mean inhibitory ratio (%) (H1299 cells; 4 h, 10 μm): 7%
- The inhibitory ratio (%) for three parallel assays (H1299 cells; 4 h, 25 μm): 12% and 15%
- The mean inhibitory ratio (%) (H1299 cells; 4 h, 25 μm): 13%
- The inhibitory ratio (%) for three parallel assays (H1299 cells; 4 h, 40 μm): 16% and 17%
- The mean inhibitory ratio (%) (H1299 cells; 4 h, 40 μm): 16%
- The inhibitory ratio (%) for three parallel assays (H1299 cells; 4 h, 50 μm): 14% and 13%
- The mean inhibitory ratio (%) (H1299 cells; 4 h, 50 μm): 14%
- The inhibitory ratio (%) for three parallel assays (H1299 cells; 4 h, 80 μm): 11% and 10%
- The mean inhibitory ratio (%) (H1299 cells; 4 h, 80 μm): 11%
- The inhibitory ratio (%) for three parallel assays (H1299 cells; 4 h, 100 μm): 13% and 17% and 12%
- The mean inhibitory ratio (%) (H1299 cells; 4 h, 100 μm): 14%
- The inhibitory ratio (%) for three parallel assays (H1299 cells; 24 h, 10 μm): 10% and 9% and 13%
- The mean inhibitory ratio (%) (H1299 cells; 24 h, 10 μm): 11%
- The inhibitory ratio (%) for three parallel assays (H1299 cells; 24 h, 25 μm): 26% and 23% and 25%
- The mean inhibitory ratio (%) (H1299 cells; 24 h, 25 μm): 25%
- The inhibitory ratio (%) for three parallel assays (H1299 cells; 24 h, 40 μm): 36% and 35% and 37%
- The mean inhibitory ratio (%) (H1299 cells; 24 h, 40 μm): 36%
- The inhibitory ratio (%) for three parallel assays (H1299 cells; 24 h, 50 μm): 44% and 45% and 41%
- The mean inhibitory ratio (%) (H1299 cells; 24 h, 50 μm): 43%
- The inhibitory ratio (%) for three parallel assays (H1299 cells; 24 h, 80 μm): 42% and 41%
- The mean inhibitory ratio (%) (H1299 cells; 24 h, 80 μm): 42%
- The inhibitory ratio (%) for three parallel assays (H1299 cells; 24 h, 100 μm): 40%
- The mean inhibitory ratio (%) (H1299 cells; 24 h, 100 μm): 40%
- The inhibitory ratio (%) for three parallel assays (H1299 cells; 48 h, 10 μm): 16% and 20% and 21%
- The mean inhibitory ratio (%) (H1299 cells; 48 h, 10 μm): 19%
- The inhibitory ratio (%) for three parallel assays (H1299 cells; 48 h, 25 μm): 37% and 36%
- The mean inhibitory ratio (%) (H1299 cells; 48 h, 25 μm): 37%
- The inhibitory ratio (%) for three parallel assays (H1299 cells; 48 h, 40 μm): 57%
- The mean inhibitory ratio (%) (H1299 cells; 48 h, 40 μm): 57%
- The inhibitory ratio (%) for three parallel assays (H1299 cells; 48 h, 50 μm): 61%
- The mean inhibitory ratio (%) (H1299 cells; 48 h, 50 μm): 61%
- The inhibitory ratio (%) for three parallel assays (H1299 cells; 48 h, 80 μm): 64% and 63% and 62%
- The mean inhibitory ratio (%) (H1299 cells; 48 h, 80 μm): 63%
- The inhibitory ratio (%) for three parallel assays (H1299 cells; 48 h, 100 μm): 65% and 64% and 63%
- The mean inhibitory ratio (%) (H1299 cells; 48 h, 100 μm): 64%
- The inhibitory ratio (%) for three parallel assays (H1299 cells; 72 h, 10 μm): 28% and 24% and 27%
- The mean inhibitory ratio (%) (H1299 cells; 72 h, 10 μm): 26%
- The inhibitory ratio (%) for three parallel assays (H1299 cells; 72 h, 25 μm): 44% and 43% and 42%
- The mean inhibitory ratio (%) (H1299 cells; 72 h, 25 μm): 43%
- The inhibitory ratio (%) for three parallel assays (H1299 cells; 72 h, 40 μm): 65% and 64%
- The mean inhibitory ratio (%) (H1299 cells; 72 h, 40 μm): 65%
- The inhibitory ratio (%) for three parallel assays (H1299 cells; 72 h, 50 μm): 73% and 74%
- The mean inhibitory ratio (%) (H1299 cells; 72 h, 50 μm): 74%
- The inhibitory ratio (%) for three parallel assays (H1299 cells; 72 h, 80 μm): 80% and 78%
- The mean inhibitory ratio (%) (H1299 cells; 72 h, 80 μm): 80%
- The inhibitory ratio (%) for three parallel assays (H1299 cells; 72 h, 100 μm): 84% and 83% and 81%
- The mean inhibitory ratio (%) (H1299 cells; 72 h, 100 μm): 83%
